The record followed here is PMC10734772 (Turkish Journal of Chemistry, 2021).

The structures appear in SMILES notation.

By melting point is commonly meant the temperature, or range, at which the solid turns liquid.

As for `Cc1ccnc(Nc2cc(NC(=O)c3ccc(CN4CCN(c5ncccn5)CC4)cc3)ccc2C)n1` [Compound 5, N-(4-Methyl-3-((4-methylpyrimidin-2-yl)amino)phenyl)-4-((4-(pyrimidin-2-yl)piperazin-1-yl)methyl)benzamide], the melting point was 89 °C.

In the case of `Cc1ccc(NC(=O)c2ccc(CN3CCN(c4ncccn4)CC3)cc2)cc1Nc1cnccn1` [Compound 7, N-(4-Methyl-3-(pyrazin-2-ylamino)phenyl)-4-((4-(pyrimidin-2-yl)piperazin-1-yl)methyl)benzamide], the melting point worked out at 143 °C.

`Cc1ccnc(Nc2cc(NC(=O)c3ccc(CN4CCOCC4)cc3)ccc2C)n1` [Compound 8, N-(4-Methyl-3-((4-methylpyrimidin-2-yl)amino)phenyl)-4-(morhpolinomethyl)benzamide] came in with a melting point of 157 °C.

Compound `Cc1ccnc(Nc2cc(NC(=O)c3ccc(CN4CCOCC4)cc3)ccc2C)c1` [Compound 9, N-(4-Methyl-3-((4-methylpyridin-2-yl)amino)phenyl)-4-(morhpolinomethyl)benzamide] registered a melting point of 155 to 157 °C.

Compound `COc1ccc(CN2CCN(Cc3ccc(C(=O)Nc4ccc(C)c(Nc5cc(C)ccn5)c4)cc3)CC2)c(OC)c1OC` [Compound 10, N-(4-Methyl-3-((4-methylpyridin-2-yl)amino)phenyl)-4-((4-(2,3,4-trimethoxybenzyl)piperazin-1-yl)methyl)benzamide] showed a melting point of 87 °C.
